Tested on: Rhizoctonia solani
Assay: Fungicidal efficacy by gassing, colonized barley grains
Assay type: cell-based
Design: Vitality score Nm (over 11 days): scale not given here; Reduction in viability RV / Reduction in vitality score RNm: unit not given here
Details: for Reduction in viability RV / Reduction in vitality score RNm: compared with the control
Protocol: These four organisms are the following:
Rhizoctonia solani: a very important group of polyphagous pathogens in the genus Rhizoctonia and which attack very many market garden crops including sweet pepper and lettuce.
• Sclerotinia sclerotiorum: sclerotia • Sclerotium rolfsii: sclerotia • Rhizoctonia solani: colonized barley grains (mycelium and sclerotia) • Phytophthora cactorum: colonized millet grains (mycelium, sporangia and oospores) Preparation of the Fungi (24 h Before the Gassing Operation) 1. Preparation of the sclerotia of Sclerotinia sclerotiorum and of Sclerotium rolfsii: The fungi are cultured on malt agar medium until the sclerotia are obtained. The sclerotia are collected in a sterile manner and stored dry in empty Petri dishes until they are used. The sclerotia used for the trial are over 3 months old and are perfectly dormant. 2. Preparation of Phytophthora cactorum and of Rhizoctonia solani: The millet and barley used for the multiplication of the two fungi are moistened with ultrapure water by immersing for 24 hours. The grains are then slightly drained and then distributed into flasks and autoclaved (3 autoclavings at 110° C. for 20 minutes, 3 times at 24 hour intervals). Fragments of fungal culture are introduced into the flasks which are then incubated at 22° C.±2° C. (white light 18 h) until homogeneous colonization is obtained. The grains are then removed from the flasks in a sterile manner, dried in the sterile stream of a safety cabinet and then stored in the dry state until they are used. Conditions for Gassing and for Desorption
All the batches of fungi to be treated are placed for a few hours at the trial temperature (20° C.). Between 35 and 300 units of fungi or “propagules” (grains or sclerotia) are subjected to gassing during each trial.
Each fumigation chamber comprising to one or more species of fungi corresponds to a glass round-bottomed flask which is impervious to the gas and has a volume of 11 litres. Each round-bottomed flask is equipped with branch connections, one at the bottom for introducing the liquid DMDS, one at the top for collecting the air sample with a syringe.
Before introducing the gas, a partial vacuum (−500 mbar) is established in the round-bottomed flask with a vacuum pump. This makes it possible, on the one hand, to avoid the phenomenon of excess pressure due to the expansibility of DMDS in the round-bottomed flask and, on the other hand, to promote better homogeneity of the air-gas mixture in the first few seconds which follow injection. The DMDS (weighed accurately to the mg) is injected with a syringe, in liquid form, through the bottom branch connection, that is to say under the screen placed at half height of the round-bottomed flask and supporting the batches of fungi. After introducing the product, the internal pressure of the round-bottomed flask is re-established at atmospheric pressure. A magnetic stirrer operates during the entire duration of the treatment in order to properly homogenize the air-gas mixture.
At the end of the gassing, the cover for the round-bottomed flask is removed. One minute after this operation, the batches of fungi gassed are taken out and left in the open air for 15 minutes for desorption of the DMDS. They are then transferred into a Petri dish, the latter remaining open for 5 minutes to allow perfect desorption of the gas. […]

[1] = CT 1 050 g·h/m^3 (C 15.91 g/m^3, T 66 h)
[2] = CT 1 402 g·h/m^3 (C 21.24 g/m^3, T 66 h)
[3] = CT 1 450 g·h/m^3 (C 30.96 g/m^3, T 48 h)
[4] = CT 1 899 g·h/m^3 (C 28.77 g/m^3, T 66 h)
[5] = CT 1 981 g·h/m^3 (C 30.02 g/m^3, T 66 h)
[6] = CT 2 460 g·h/m^3 (C 51.25 g/m^3, T 48 h)
[7] = CT 2 471 g·h/m^3 (C 37.44 g/m^3, T 66 h)
[8] = CT 2 837 g·h/m^3 (C 42.98 g/m^3, T 66 h)
[9] = CT 2 974 g·h/m^3 (C 45.06 g/m^3, T 66 h)
[10] = CT 3 169 g·h/m^3 (C 48.02 g/m^3, T 66 h)
[11] = CT 3 467 g·h/m^3 (C 52.53 g/m^3, T 66 h)
[12] = CT 419 g·h/m^3 (C 17.46 g/m^3, T 24 h)
[13] = CT 625 g·h/m^3 (C 26.04 g/m^3, T 24 h)
[14] = CT 703 g·h/m^3 (C 29.29 g/m^3, T 24 h)
[15] = CT 907 g·h/m^3 (C 37.79 g/m^3, T 24 h)

## CSSC [DMDS, dimethyl disulphide]
[1]
  Viability V: 89.2%
  Vitality score Nm (over 11 days): 7.0
  Reduction in viability RV: 10.8
  Reduction in vitality score RNm: 22.2
[2]
  Viability V: 96.9%
  Vitality score Nm (over 11 days): 7.6
  Reduction in viability RV: 3.1
  Reduction in vitality score RNm: 15.0
[3]
  Viability V: 98.5%
  Vitality score Nm (over 11 days): 4.4
  Reduction in viability RV: 1.5
  Reduction in vitality score RNm: 51.3
[4]
  Viability V: 84.3%
  Vitality score Nm (over 11 days): 6.0
  Reduction in viability RV: 15.7
  Reduction in vitality score RNm: 33.2
[5]
  Viability V: 94.7%
  Vitality score Nm (over 11 days): 7.4
  Reduction in viability RV: 5.3
  Reduction in vitality score RNm: 17.2
[6]
  Viability V: 11.0%
  Vitality score Nm (over 11 days): 0.3
  Reduction in viability RV: 89.0
  Reduction in vitality score RNm: 96.2
[7]
  Viability V: 24.1%
  Vitality score Nm (over 11 days): 0.6
  Reduction in viability RV: 75.9
  Reduction in vitality score RNm: 92.0
[8]
  Viability V: 2.2%
  Vitality score Nm (over 11 days): 0.1
  Reduction in viability RV: 97.8
  Reduction in vitality score RNm: 98.4
[9]
  Viability V: 9.4%
  Vitality score Nm (over 11 days): 0.1
  Reduction in viability RV: 90.6
  Reduction in vitality score RNm: 98.4
[10]
  Viability V: 1.2%
  Vitality score Nm (over 11 days): 0.05
  Reduction in viability RV: 98.8
  Reduction in vitality score RNm: 99.3
[11]
  Viability V: 0%
  Vitality score Nm (over 11 days): 0
  Reduction in viability RV: 100
  Reduction in vitality score RNm: 100
[12]
  Viability V: 100%
  Vitality score Nm (over 11 days): 9.0
  Reduction in viability RV: 0
  Reduction in vitality score RNm: 0
[13]
  Viability V: 100%
  Vitality score Nm (over 11 days): 8.7
  Reduction in viability RV: 0
  Reduction in vitality score RNm: 3.1
[14]
  Viability V: 100%
  Vitality score Nm (over 11 days): 8.3
  Reduction in viability RV: 0
  Reduction in vitality score RNm: 7.3
[15]
  Viability V: 100%
  Vitality score Nm (over 11 days): 7.1
  Reduction in viability RV: 0
  Reduction in vitality score RNm: 21.6
